Reference: US8124412B2, “Method of culturing conifer somatic embryos using S(+)-abscisic acid” (Cellfor Inc., priority 2005, dated 2012)

Columns and labels:
[1] = test system: loblolly pine somatic embryos, line 76; assay: Loblolly pine somatic embryo maturation: plantable germinants per gram of tissue plated; format: cell-based, Pinus taeda (loblolly pine)
Procedure: The culture medium for loblolly pine was TX medium (see Table 1) with the following additives: Glutamine 2500 mg/L, casein hydrolysate 3000 mg/L, and pH 5.8. The following compounds were added into the basal medium for loblolly pine somatic embryo development at different stages:
1) Solid maintenance medium: 9 μM 2,4-D and 4.5 μM BA, gellan gum 0.3%, sucrose 1%, lactose 2%.
2) Liquid maintenance and bulking-up medium: 9 μM 2,4-D and 4.5 μM BA, 1% sucrose, 2% lactose.
3) Liquid pre-treatment medium: 1% sucrose, 2% lactose.
4) Preculture II medium. Lactose 2%, 1% sucrose
5) Solid maturation containing 1% gellan gum, and 2500 mg/L L-glutamine and 3000 mg/L casein hydrolysate, 3% sucrose. The maturation media contained different types of ABA and concentrations. S,R-ABA (98% purity) was tested at the previously determined optimum of 120 μM. S-ABA (90% purity) was tested at 60 μM and 120 μM. 0.3 grams of tissue were plated per petri-plate). Culture was for 18 weeks in the dark at room temperature. After, the embryos were desiccated for 1.5 hours in a stream of sterile air to a moisture content of less than 10%. Plates were stored at −28° C.
6) Germination. The filter papers with desiccated embryos attached were moved onto germination medium shown in Table 2, and cultured in the dark for 1 week then transferred to light. The numbers of germinants of suitable quality for planting were counted.

[2] = test system: Douglas fir somatic embryos; assay: Douglas fir somatic embryogenesis: maturation, germination and conversion after culture on S-ABA or S,R-ABA; format: cell-based, Pseudotsuga menziesii (Douglas fir)
Procedure: The culture medium used for Douglas fir was TX medium (see Table 1) with the following additives: glutamine 100 mg/L, casein hydrolysate 100 mg/L, and pH 5.8. The following compounds were added into the basal medium for Douglas fir somatic embryo development at different stages:
1) Solid maintenance medium: 9 μM 2,4-D and 4.5 μM BA, gellan gum 0.28%, sucrose 1%.
2) Liquid maintenance and bulking-up medium: 9 μM 2,4-D and 4.5 μM BA, different carbon sources for experiments.
3) Liquid pre-treatment medium: 20 (first week) or 30 μM ABA (second week), 10% PEG4000 (first week) or PEG1500 (second week), different carbon sources as described in examples below.
4) Solid maturation medium consisted of three media all with 0.02% NH4NO3 and the following:
Medium I. 40 μM ABA, 10% PEG 1500, maltose 2.5%, gellan gum 0.6%
Medium II. 60 μM ABA, 10% PEG1500, maltose 2.5% and sucrose 1%, gellan gum 0.8%
Medium III. 70 μM ABA, 6% PEG1500, sucrose 6%, gellan gum 1%.
The culture was kept in darkness at 23° C. Embryogenic tissue was sub-cultured once every two weeks onto solid maintenance medium. […]
5) Germination. The cultures were germinated at room temperature for 2 to 3 weeks on TX medium (Table 1), 0.5% gellan gum, 1 g/L NH4NO3 after which the germinants were hand selected and placed in low-light for 1 week and high-light for 7 weeks then planted in miniplugs and evaluated after 14 weeks.

[3] = test system: loblolly pine somatic embryos, line 76; assay: Loblolly pine: S-ABA concentration in preculture II medium and maturation medium; format: cell-based, Pinus taeda (loblolly pine); conditions: S-ABA 95% purity, line 76 (FIG. 6)
Procedure: The effect of S-ABA (95% purity) was tested in the loblolly pine pre-culture II medium followed by maturation medium. Somatic embryos of line 76 were cultured as described above; however, ABA was added to the pre-culture medium and maturation medium in the following treatments: […]

[4] = test system: loblolly pine germinants/seedlings, line 76; assay: Loblolly pine merchantable miniplug seedlings in nursery after maturation treatments; format: in vivo, Pinus taeda (loblolly pine); conditions: line 76 (FIG. 5)
Procedure: The effect of the different kinds of ABA on the survival and vigour of germinants was investigated. The germinants were prepared as described above except that ABA in the maturation medium consisted of 95% and 98% purity S-ABA, which was used in the maturation medium at 60 and 120 μM concentration. The S,R-ABA (98% purity) was used at 60 and 120 μM concentration. Miniplug seedlings of merchantable quality were scored after 14 weeks in the nursery.

| SMILES | number of plantable germinants per gram of tissue plated, compared to 120 μM S,R-ABA ([1]; 60 μM S-ABA (90% purity) in maturation medium, loblolly line 76 (FIG. 4)) | number of plantable germinants, compared to 120 μM S,R-ABA ([1]; 120 μM S-ABA (90% purity) in maturation medium, loblolly line 76 (FIG. 4)) | effect on maturation frequencies ([2]; Douglas fir, S-ABA compared with S,R-ABA) | conversion of embryos, increase compared to S,R-ABA ([2]; one Douglas fir cell line with low conversion potential, embryos cultured on S-ABA vs S,R-ABA (FIG. 3)) | gradual increase in S-ABA compared to constant ABA throughout development ([3]; 45 μM S-ABA in pre-culture medium to 90 μM in maturation medium) | 90 μM S-ABA maturation medium compared to 120 μM S-ABA maturation medium [3] | mean % merchantable seedlings, rank among treatments ([4]; 60 μM 98% purity S-ABA, after 14 weeks in nursery) | merchantable seedlings, compared to the 60 μM S,R-ABA treatment ([4]; 120 μM S-ABA, after 14 weeks in nursery) | mean % merchantable seedlings, compared to the S,R-ABA treatments ([4]; all S-ABA treatments (95% and 98% purity, 60 and 120 μM), scored after 14 weeks in nursery) | optimum concentration in maturation medium ([1]; loblolly pine, S,R-ABA 98% purity, previously determined) |
| --- | --- | --- | --- | --- | --- | --- | --- | --- | --- | --- |
| CC1=CC(=O)CC(C)(C)[C@@]1(O)/C=C/C(C)=C\C(=O)O (mixture of isomers) [S-ABA, (+)-cis,trans-Abscisic Acid] | significantly higher | double | similar | 2.5 fold | superior | superior | significantly the is highest | more optimal | higher |  |
| CC1=CC(=O)CC(C)(C)C1(O)/C=C/C(C)=C\C(=O)O (stereo not shown) [S,R-ABA, reference compound] |  |  |  |  |  |  |  |  |  | 120 µM |
